# “And” between values parts separate entries of the source, which are not always exact repeats. Identical values can stand only once.
# Tests used:
# [1] = biological target: T1, Peptidyl-prolyl cis-trans isomerase A (Homo sapiens, UniProt P62937); assay: ESI-MS Assay
# Source text: Electrospray mass spectrometry assay is a immunophilin-ligand binding assay which allows us to rapidly probe the affinity of potential inhibitors for CypA which rely on the use of soft-ESI conditions to preserve noncovalent interactions between protein and ligand.
# [2] = biological target: T1, Peptidyl-prolyl cis-trans isomerase A; assay: PPIase Assay
# Source text: The promising ligand from the results obtained from ESI-MS assay are subjected to PPIase in vitro assay. The PPIase assay assesses the abil9ity of ligands to inhibit the PPIase activity of CypA.
# [3] = biological target: T1, Peptidyl-prolyl cis-trans isomerase A; assay: Fluorescence Assay
# Source text: The promising ligand from the results obtained from ESI-MS assay are subjected to fluorescence in vitro assay. The fluorescence assay takes advantage of the presence of a single tryptophan residue (Trp121) located close to the active site of CypA.
# T1 sequence (P62937 whole entry): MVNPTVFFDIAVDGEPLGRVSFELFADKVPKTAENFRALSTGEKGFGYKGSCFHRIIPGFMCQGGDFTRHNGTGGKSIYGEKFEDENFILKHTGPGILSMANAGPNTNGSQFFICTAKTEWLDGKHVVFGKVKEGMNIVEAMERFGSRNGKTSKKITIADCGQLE
SMILES,Kd [1],Ki [2],Kd [3]
"COC(=O)[C@H](CCCCNC(C)=O)C1C(=O)CC2C1=CC(=O)CC2(C)C (some centres undefined) [Cyclophilin Inhibitor, 3d]",85.1 µM,> 100 µM,
"COC(=O)[C@H](CCCCNS(=O)(=O)c1cccc2c(N(C)C)cccc12)C1C(=O)CC2C1=CC(=O)CC2(C)C (some centres undefined) [Cyclophilin Inhibitor, 3e]",113 µM,207 µM,21.9 µM
"COC(=O)[C@H](CCCN=C(N)N[N+](=O)[O-])C1C(=O)CC2C1=CC(=O)CC2(C)C (some centres undefined) [Cyclophilin Inhibitor, 3c]",31.9 µM,> 100 µM,29.6 µM
"COC(=O)[C@H](CCCCN)C1C(=O)CC2C1=CC(=O)CC2(C)C (some centres undefined) [Cyclophilin Inhibitor, 15]",72.6 µM,,15.9 µM and > 50 µM
"COC(=O)[C@H](CCCCNS(=O)(=O)c1cccc2c(N(C)C)cccc12)C1C(=O)C[C@@H]2C1=CC(=O)CC2(C)C (some centres undefined) [Cyclophilin Inhibitor, 3f]",133 µM,,
"COC(=O)[C@H](CCCCNC(=O)OCc1ccccc1)C1C(=O)CC2C1=CC(=O)CC2(C)C (some centres undefined) [Cyclophilin Inhibitor, 3a]",128 µM,> 100 µM,22.8 µM
